Assay results from patent US11332438B2, “Creatine prodrugs, compositions and methods of use thereof” (Ultragenyx Pharmaceutical Inc., priority 2017, dated 2022).
Like-named read-outs stand apart in the source and are kept apart here.

Key:
[1] = rcm bond, Grubbs II, 50.0 °C
[2] = In vivo IV dosing in CrT KO mice: prodrug, d3-Cr and d3-Crn in brain (Table 5)
Experimental: A creatine prodrug is administered as an intravenous bolus injection to groups of three to six adult male CD1 mice at an appropriate creatine prodrug dose equivalent per kg body weight. Animals are conscious at the time of the experiment. Blood samples (0.3 mL) are obtained via a jugular vein cannula at intervals over 8 hours following IV dosing. Blood is processed into plasma, then the plasmais immediately frozen at −80° C. until analyzed by LC-MS/MS. Samples may also be taken form the CSF or other appropriate biological fluid. Brains were collected and flash frozen immediately in liquid nitrogen. Brains were homogenized in 100 mM KPI buffer with a cocktail of anti-proteases on the same day as the sample preparation required for LC-MS/MS analysis.
Several prodrugs with either free COOH group and ester linkage and macrocycles were selected for IV dosing in animal study to assess PK and d3-Cr release in brain in vivo. Prodrugs were IV dosed in CrT KO mice at 10, 15, or 25 mg/kg in animal studies. Mouse brain homogenates (MBH) were prepared from brains collected from mice after dosing. Levels of prodrug, d3-Cr and d3-Crn were quantified in brain and expressed in brain concentration (for macrocycle prodrugs) or AUC (for linear prodrugs) over time. Very few prodrugs were detected in MBH.

[3] = Chemical stability in phosphate buffered saline (PBS); assay type: physicochemical; conditions: Table 2A, 50 μM prodrug
Procedure, shortened: (§1)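 Incubations used 50 μM compound at 37 °C in phosphate buffered saline, fasted simulated intestinal fluid without pancreatin, or fasted simulated gastric fluid without pepsin.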

[4] = Chemical stability in simulated gastric fluid (SGF) without pepsin; assay type: physicochemical; conditions: Table 2A, 50 μM prodrug
Procedure, shortened: as §1

[5] = Chemical stability in simulated intestinal fluid (SIF) without pancreatin; assay type: physicochemical; conditions: Table 2A, 50 μM prodrug
Experimental: Chemical stability of creatine prodrugs in phosphate buffered saline (PBS), simulated intestinal fluid (SIF) without pancreatin, simulated gastric fluid (SGF) without pepsin were determined by LC-UV, LC-CAD, LC-UV-CAD or LC-MS/MS as appropriate. Creatine prodrugs of the present disclosure (50 μM) were incubated at 37° C. according to described protocols and prodrug levels were compared between t=0, t=15, t=60, and t=120 mins by peak area ratio to determine the percentage remained at t=120 mins (2 h).
Protocol for PBS, SIF and SGF stability for screening:
Prodrugs (50 μM) were incubated in PBS, FaSSIF (Biorelevant) or FaSSGF (Biorelevant) at 37° C.

[6] = Liver microsome stability, mouse; assay type: in vitro ADME; conditions: liver microsomes, pH 7.4, Table 2A, read-out: Microsome Stability Mouse t1/2
Procedure, shortened: (§2)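 Test compound incubated with mouse or human liver microsomes and NADPH in 0.1 M potassium phosphate, 1.0 mM EDTA, pH 7.4, with a 60-min no-NADPH control. Samples quenched with ACN containing internal standard at 0, 5, 10, 20, 30 and 60 min, then analysed by LC/MS.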

[7] = Liver microsome stability, human; assay type: in vitro ADME; conditions: liver microsomes, pH 7.4, Table 2A, read-out: Microsome Stability Human t1/2
Procedure, shortened: as §2

[8] = Plasma stability, mouse plasma; assay type: in vitro ADME; conditions: Table 2A, 37 °C, read-out: Plasma Stability Mouse t1/2
Procedure, shortened: (§3)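 Test article, 1 µM final (from 10% DMSO/water), incubated at 37 °C in plasma adjusted to pH 7.4 if needed; samples at 0, 2, 5, 15 and 30 min quenched with ice-cold 80% acetonitrile. Remaining compound by LC-MS/MS; half-life in minutes calculated.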

[9] = Plasma stability, human plasma; assay type: in vitro ADME; conditions: Table 2A, 37 °C, read-out: Plasma Stability Human t1/2
Procedure, shortened: as §3

[10] = rcm bond, DCM, 50.0 °C

[2H]C([2H])([2H])N1CC(=O)OC(C)C=CCCCCCCCC(=O)N/C1=N/C(=O)OC(C)(C)C (centres unmarked)
ring closure, yield of all isomers ([1]; from [2H]C([2H])([2H])N(CC(=O)OC(C)C=C)/C(=N\C(=O)OC(C)(C)C)NC(=O)CCCCCCCC=C, DCM, 2.28 mM): 77%

[2H]C([2H])([2H])N(CC(=O)[O-])C(=N)NC(=O)CCCCCCCCCC.[Na+] [Compound 4]
crossing of BBB (in words) ([2]; CrT KO mice, IV dosing): did not seem to cross BBB | AUClast d3-Cr in the brain ([2]; IV 10 mg/kg, CrT KO mouse brain, BQL d3-Cr = 13.7 ng/mL): BQL | AUClast d3-Crn in the brain ([2]; IV 10 mg/kg, CrT KO mouse brain, BQL d3-Crn = 1.5 ng/mL): BQL | AUClast prodrug in the brain ([2]; IV 10 mg/kg, CrT KO mouse brain, BQL prodrug = 41.2 ng/mL): BQL | Chemical Stability PBS % T0 at 2 hours at 37 °C. [3]: 69% | Chemical Stability SGF, no enzyme % T0 at 2 hours at 37 °C. [4]: 94% | Chemical Stability SIF, no enzyme % T0 at 2 hours at 37 °C. [5]: 61%

[2H]C([2H])([2H])N1CC(=O)OC2(CC/C=C/CCCCCC(=O)NC1=NC(=O)OCc1ccccc1)CCOC2 (centres unmarked)
ring closure, yield of all isomers ([1]; from [2H]C([2H])([2H])N(CC(=O)OC1(CCC=C)CCOC1)C(=NC(=O)OCc1ccccc1)NC(=O)CCCCCC=C, dichloromethane, 1.95 mM): 78%

[2H]C([2H])([2H])N1CC(=O)OC(CC)/C=C/CCCCCCCC(=O)N/C1=N/C(=O)OC(C)(C)C (centres unmarked)
ring closure, yield of all isomers ([1]; from [2H]C([2H])([2H])N(CC(=O)OC(C=C)CC)/C(=N\C(=O)OC(C)(C)C)NC(=O)CCCCCCCC=C, DCM, 2.82 mM): 86%

[2H]C([2H])([2H])N1CC(=O)OC(C)(C)CC=CCCCCCCCC(=O)N/C1=N/C(=O)OCc1ccccc1
ring closure, yield of all isomers ([1]; from [2H]C([2H])([2H])N(CC(=O)OC(C)(C)CC=C)/C(=N\C(=O)OCc1ccccc1)NC(=O)CCCCCCCC=C, dichloromethane, 2.0 mM): 79%

[2H]C([2H])([2H])N1CC(=O)OC2(CCC=CCCCCCC(=O)N/C1=N/C(=O)OCc1ccccc1)CCC2
ring closure, yield of all isomers ([1]; from [2H]C([2H])([2H])N(CC(=O)OC1(CCC=C)CCC1)/C(=N\C(=O)OCc1ccccc1)NC(=O)CCCCCC=C, dichloromethane, 2.4 mM): 33%

[2H]C([2H])([2H])N(CC(=O)[O-])C(=N)NC(=O)CCCCC/C=C\CCCCCCCCCC.[Li+] [Compound 24]
Chemical Stability PBS % T0 at 2 hours at 37 °C. [3]: 150% | half-life at 10 μM [6]: 1.37 h | half-life at 10 μM [7]: 1.3 h | half-life [8]: > 3 h | Chemical Stability SGF, no enzyme % T0 at 2 hours at 37 °C. [4]: 39% | Chemical Stability SIF, no enzyme % T0 at 2 hours at 37 °C. [5]: 74% | half-life [9]: > 3 h

CN1CC(=O)OC(C)(C)CC=CCCCCCCCC(=O)NC1=NC(=O)OCc1ccccc1
ring closure, isolated yield ([10]; from [2H]C([2H])([2H])N(CC(=O)OC(C)(C)CC=C)/C(=N\C(=O)OCc1ccccc1)NC(=O)CCCCCCCC=C, 18-membered ring, Grubbs II (10 mol%), 2.0 mM, 2.0 h): 79%

[2H]C([2H])([2H])N(CC(=O)[O-])C(=N)NC(=O)CCC/C=C\C/C=C\C/C=C\C/C=C\CCCCC.[Na+] [Compound 22]
Chemical Stability PBS % T0 at 2 hours at 37 °C. [3]: 35% | half-life at 10 μM [6]: 0.15 h | half-life at 10 μM [7]: 0.4 h | half-life [8]: > 3 h | Chemical Stability SGF, no enzyme % T0 at 2 hours at 37 °C. [4]: 30% | Chemical Stability SIF, no enzyme % T0 at 2 hours at 37 °C. [5]: 86% | half-life [9]: 2.17 h

CC1CC=CCCCCCCCC(=O)NC(=NC(=O)OC(C)(C)C)N(C)CC(=O)O1 (centres unmarked)
ring closure, isolated yield ([10]; from [2H]C([2H])([2H])N(CC(=O)OC(C)CC=C)C(=NC(=O)OC(C)(C)C)NC(=O)CCCCCCCC=C, 18-membered ring, Grubbs II, 2.0 h, 2 steps): 53%

(Z)-tert-butyl-((E)-17-ethyl-4-trideuteriomethyl-2,7-dioxo-1-oxa-4,6-diazacycloheptadec-15-en-5-ylidene) carbamate
ring closure, isolated yield ([10]; 17-membered ring, Grubbs II (20 mol%), 2.82 mM): 86%

[2H]C([2H])([2H])N1CC(=O)OCCCCCCCC/C=C/CCCCCCCC(=O)NC1=NC(=O)OCc1ccccc1
ring closure, yield of all isomers ([1]; from [2H]C([2H])([2H])N(CC(=O)OCCCCCCCCC=C)C(=NC(=O)OCc1ccccc1)NC(=O)CCCCCCCC=C, dichloromethane, 1.79 mM): 78%

[2H]C([2H])([2H])N1CC(=O)OC2(CCC=CCCCCCC(=O)NC1=NC(=O)OCc1ccccc1)CCCC2
ring closure, yield of all isomers ([1]; from [2H]C([2H])([2H])N(CC(=O)OC1(CCC=C)CCCC1)C(=NC(=O)OCc1ccccc1)NC(=O)CCCCCC=C, dichloromethane, 1.95 mM): 84%

[2H]C([2H])([2H])N1CC(=O)OCCCCCCCC/C=C/CCCCCCCC(=O)N/C1=N/C(=O)OCc1ccccc1
ring closure, isolated yield ([10]; from [2H]C([2H])([2H])N(CC(=O)OCCCCCCCCC=C)/C(=N\C(=O)OCc1ccccc1)NC(=O)CCCCCCCC=C, 24-membered ring, Grubbs II (10 mol%), 1.79 mM, 2.0 h): 78%

CN1CC(=O)OC(C)(C)CCCC=CCCC(=O)NC1=NC(=O)OCc1ccccc1
ring closure, isolated yield ([10]; from [2H]C([2H])([2H])N(CC(=O)OC(C)(C)CCCC=C)C(=NC(=O)OCc1ccccc1)NC(=O)CCC=C, 15-membered ring, Grubbs II): 50%

[2H]C([2H])([2H])N(CC(=O)OCC)C(=N)NC(=O)CCCCCCCCCCCC [Compound 46]
Chemical Stability PBS % T0 at 2 hours at 37 °C. [3]: 0% | half-life [8]: < 0.0833 h | Chemical Stability SGF, no enzyme % T0 at 2 hours at 37 °C. [4]: 111% | Chemical Stability SIF, no enzyme % T0 at 2 hours at 37 °C. [5]: 45% | half-life [9]: < 0.0833 h
